Source: ChEMBL document CHEMBL5303765, “Data for DCP probe BAY-7081” (2023)

What was measured:
[1] = molecular target: Proto-oncogene tyrosine-protein kinase Src (Homo sapiens) (UniProt P12931); test: SRC SGC Tm panel (DSF); settings: for ΔTm: Compound concentration 10.0 uM
[2] = molecular target: RAC-gamma serine/threonine-protein kinase (Homo sapiens) (UniProt Q9Y243); test: AKT3 SGC Tm panel (DSF); settings: for ΔTm: Compound concentration 10.0 uM
[3] = molecular target: Calcium/calmodulin-dependent protein kinase type II subunit beta (Homo sapiens) (UniProt Q13554); test: CAMK2B SGC Tm panel (DSF); settings: for ΔTm: Compound concentration 10.0 uM
Chain of Calcium/calmodulin-dependent protein kinase type II subunit beta (Homo sapiens) (Q13554 whole entry): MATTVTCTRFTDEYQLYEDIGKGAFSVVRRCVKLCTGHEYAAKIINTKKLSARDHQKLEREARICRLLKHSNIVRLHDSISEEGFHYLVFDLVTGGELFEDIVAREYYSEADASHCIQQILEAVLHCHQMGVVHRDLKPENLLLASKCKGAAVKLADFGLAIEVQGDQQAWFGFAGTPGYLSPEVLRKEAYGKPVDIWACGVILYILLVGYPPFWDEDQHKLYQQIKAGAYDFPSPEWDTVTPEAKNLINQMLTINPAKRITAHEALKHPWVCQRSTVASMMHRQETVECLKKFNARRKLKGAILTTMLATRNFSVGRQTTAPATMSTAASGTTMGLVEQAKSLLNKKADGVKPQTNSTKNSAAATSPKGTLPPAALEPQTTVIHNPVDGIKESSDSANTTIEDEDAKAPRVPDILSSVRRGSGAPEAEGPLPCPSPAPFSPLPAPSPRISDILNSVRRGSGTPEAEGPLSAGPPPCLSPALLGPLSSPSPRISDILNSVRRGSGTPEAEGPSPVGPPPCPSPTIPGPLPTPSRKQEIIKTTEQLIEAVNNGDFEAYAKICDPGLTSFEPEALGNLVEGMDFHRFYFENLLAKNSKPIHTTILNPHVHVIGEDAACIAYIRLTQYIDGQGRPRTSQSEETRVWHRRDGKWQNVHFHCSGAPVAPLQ

[4] = molecular target: T1, 5-hydroxytryptamine receptor 1A (Homo sapiens) (UniProt P08908); settings: Compound concentration 10.0 uM
T1 sequence (whole entry): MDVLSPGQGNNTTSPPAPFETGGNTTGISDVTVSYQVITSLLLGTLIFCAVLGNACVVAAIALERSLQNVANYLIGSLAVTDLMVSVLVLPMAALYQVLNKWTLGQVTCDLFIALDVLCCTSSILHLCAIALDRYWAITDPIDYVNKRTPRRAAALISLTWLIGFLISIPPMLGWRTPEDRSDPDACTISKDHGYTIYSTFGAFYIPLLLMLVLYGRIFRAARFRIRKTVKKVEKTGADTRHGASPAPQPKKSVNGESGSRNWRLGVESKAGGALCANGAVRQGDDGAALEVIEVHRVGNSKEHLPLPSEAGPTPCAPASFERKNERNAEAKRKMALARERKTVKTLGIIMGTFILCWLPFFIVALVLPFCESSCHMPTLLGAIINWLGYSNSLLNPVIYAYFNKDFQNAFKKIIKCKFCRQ

[5] = molecular target: MAP/microtubule affinity-regulating kinase 3 (Homo sapiens) (UniProt P27448); test: MARK3 SGC Tm panel (DSF); settings: for ΔTm: Compound concentration 10.0 uM
Chain of MAP/microtubule affinity-regulating kinase 3 (Homo sapiens) (P27448 whole entry, looked up): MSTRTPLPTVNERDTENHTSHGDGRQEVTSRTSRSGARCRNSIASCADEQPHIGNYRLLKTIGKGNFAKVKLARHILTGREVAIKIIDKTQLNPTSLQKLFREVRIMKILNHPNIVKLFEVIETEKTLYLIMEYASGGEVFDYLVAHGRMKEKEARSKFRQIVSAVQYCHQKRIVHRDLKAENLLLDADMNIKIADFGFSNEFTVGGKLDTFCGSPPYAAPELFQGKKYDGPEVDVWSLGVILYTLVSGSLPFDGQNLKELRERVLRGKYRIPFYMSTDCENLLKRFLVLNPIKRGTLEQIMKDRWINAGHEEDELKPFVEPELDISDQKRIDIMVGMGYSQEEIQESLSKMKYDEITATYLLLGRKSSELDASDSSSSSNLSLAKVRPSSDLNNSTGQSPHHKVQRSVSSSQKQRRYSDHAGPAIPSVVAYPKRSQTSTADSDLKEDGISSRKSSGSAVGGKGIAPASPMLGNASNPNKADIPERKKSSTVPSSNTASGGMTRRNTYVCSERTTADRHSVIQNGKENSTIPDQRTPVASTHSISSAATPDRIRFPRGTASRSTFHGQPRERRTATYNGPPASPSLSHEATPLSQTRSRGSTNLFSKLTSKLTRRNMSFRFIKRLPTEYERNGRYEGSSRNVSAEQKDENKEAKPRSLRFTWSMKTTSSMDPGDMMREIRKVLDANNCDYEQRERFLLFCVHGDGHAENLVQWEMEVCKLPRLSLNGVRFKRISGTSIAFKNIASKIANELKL

[6] = molecular target: T2, Serine/threonine-protein kinase 17B (Homo sapiens) (UniProt O94768); test: STK17B SGC Tm panel (DSF); settings: for ΔTm: Compound concentration 10.0 uM
T2 sequence (whole entry): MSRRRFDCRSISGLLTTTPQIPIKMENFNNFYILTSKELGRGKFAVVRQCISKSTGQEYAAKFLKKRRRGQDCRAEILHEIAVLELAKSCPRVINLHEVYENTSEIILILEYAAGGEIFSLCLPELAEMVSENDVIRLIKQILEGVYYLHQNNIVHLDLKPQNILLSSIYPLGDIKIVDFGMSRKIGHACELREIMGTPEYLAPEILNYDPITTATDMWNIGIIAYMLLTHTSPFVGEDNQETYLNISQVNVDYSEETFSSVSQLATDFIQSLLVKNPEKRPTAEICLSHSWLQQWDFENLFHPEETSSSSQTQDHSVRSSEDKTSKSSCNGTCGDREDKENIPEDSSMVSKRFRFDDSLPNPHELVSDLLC

[7] = molecular target: Sodium-dependent dopamine transporter (Homo sapiens) (UniProt Q01959); settings: Compound concentration 10.0 uM
Chain of Sodium-dependent dopamine transporter (Homo sapiens) (Q01959 whole entry): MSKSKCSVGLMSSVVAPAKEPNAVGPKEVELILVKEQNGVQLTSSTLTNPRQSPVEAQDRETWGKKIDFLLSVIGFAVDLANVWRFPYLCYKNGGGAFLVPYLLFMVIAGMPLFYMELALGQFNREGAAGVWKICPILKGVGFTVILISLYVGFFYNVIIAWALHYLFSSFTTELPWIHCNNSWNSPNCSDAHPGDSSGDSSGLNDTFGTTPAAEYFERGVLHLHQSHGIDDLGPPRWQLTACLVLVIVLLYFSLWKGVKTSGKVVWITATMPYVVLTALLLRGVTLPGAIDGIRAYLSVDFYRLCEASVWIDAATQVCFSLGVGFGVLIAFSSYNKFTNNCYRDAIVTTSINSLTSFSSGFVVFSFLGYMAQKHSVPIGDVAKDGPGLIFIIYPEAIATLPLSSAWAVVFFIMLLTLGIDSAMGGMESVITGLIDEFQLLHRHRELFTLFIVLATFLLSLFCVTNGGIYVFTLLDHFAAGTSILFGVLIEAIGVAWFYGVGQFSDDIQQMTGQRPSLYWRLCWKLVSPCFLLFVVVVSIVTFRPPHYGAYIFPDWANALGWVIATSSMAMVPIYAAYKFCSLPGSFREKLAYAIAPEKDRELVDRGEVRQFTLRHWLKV

[8] = molecular target: Beta-2 adrenergic receptor (Homo sapiens) (UniProt P07550); settings: Compound concentration 10.0 uM
Chain of Beta-2 adrenergic receptor (Homo sapiens) (P07550 whole entry, looked up): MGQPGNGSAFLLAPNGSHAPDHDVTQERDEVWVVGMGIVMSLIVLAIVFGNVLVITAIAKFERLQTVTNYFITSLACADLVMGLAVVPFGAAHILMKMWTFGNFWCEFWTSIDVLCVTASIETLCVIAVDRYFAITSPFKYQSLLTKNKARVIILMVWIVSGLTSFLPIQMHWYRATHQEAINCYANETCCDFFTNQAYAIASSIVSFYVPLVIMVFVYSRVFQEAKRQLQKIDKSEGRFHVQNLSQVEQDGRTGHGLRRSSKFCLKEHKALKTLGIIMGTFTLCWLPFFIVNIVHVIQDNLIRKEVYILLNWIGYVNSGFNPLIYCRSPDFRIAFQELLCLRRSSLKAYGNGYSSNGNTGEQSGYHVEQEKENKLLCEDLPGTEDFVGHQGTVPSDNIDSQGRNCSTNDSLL

[9] = molecular target: T3, Bone morphogenetic protein receptor type-2 (Homo sapiens) (UniProt Q13873); test: BMPR2 SGC Tm panel (DSF); settings: for ΔTm: Compound concentration 10.0 uM
T3 sequence (whole entry): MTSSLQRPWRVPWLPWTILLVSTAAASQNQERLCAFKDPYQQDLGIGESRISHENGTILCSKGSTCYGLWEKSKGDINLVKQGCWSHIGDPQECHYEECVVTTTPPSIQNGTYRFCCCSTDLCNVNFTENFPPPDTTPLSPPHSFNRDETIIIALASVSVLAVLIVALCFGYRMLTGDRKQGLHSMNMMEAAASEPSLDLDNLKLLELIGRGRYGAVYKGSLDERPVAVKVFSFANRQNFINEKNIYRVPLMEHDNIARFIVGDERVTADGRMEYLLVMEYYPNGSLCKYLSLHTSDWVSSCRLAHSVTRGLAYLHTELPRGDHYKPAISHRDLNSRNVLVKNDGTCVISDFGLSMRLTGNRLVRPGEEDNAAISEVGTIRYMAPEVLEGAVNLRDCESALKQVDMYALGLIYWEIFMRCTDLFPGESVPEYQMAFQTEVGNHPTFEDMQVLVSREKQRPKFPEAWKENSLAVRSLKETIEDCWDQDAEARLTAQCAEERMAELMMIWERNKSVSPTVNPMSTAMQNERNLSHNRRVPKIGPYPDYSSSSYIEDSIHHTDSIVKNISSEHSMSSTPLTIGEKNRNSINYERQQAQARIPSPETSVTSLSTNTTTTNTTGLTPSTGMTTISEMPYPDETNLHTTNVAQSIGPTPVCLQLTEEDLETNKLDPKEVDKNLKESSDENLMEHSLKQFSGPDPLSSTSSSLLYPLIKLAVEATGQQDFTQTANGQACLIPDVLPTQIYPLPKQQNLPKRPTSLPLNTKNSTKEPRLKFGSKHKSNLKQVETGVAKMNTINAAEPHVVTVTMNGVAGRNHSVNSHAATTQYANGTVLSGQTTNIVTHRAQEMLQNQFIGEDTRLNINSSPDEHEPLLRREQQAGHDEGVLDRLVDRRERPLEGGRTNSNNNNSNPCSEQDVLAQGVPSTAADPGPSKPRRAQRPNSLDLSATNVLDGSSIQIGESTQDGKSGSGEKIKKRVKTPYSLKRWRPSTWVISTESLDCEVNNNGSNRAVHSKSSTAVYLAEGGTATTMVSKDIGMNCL

[10] = molecular target: Cyclin-dependent kinase 16 (Homo sapiens) (UniProt Q00536); test: PCTK1 SGC Tm panel (DSF); settings: for ΔTm: Compound concentration 10.0 uM
Chain of Cyclin-dependent kinase 16 (Homo sapiens) (Q00536 whole entry): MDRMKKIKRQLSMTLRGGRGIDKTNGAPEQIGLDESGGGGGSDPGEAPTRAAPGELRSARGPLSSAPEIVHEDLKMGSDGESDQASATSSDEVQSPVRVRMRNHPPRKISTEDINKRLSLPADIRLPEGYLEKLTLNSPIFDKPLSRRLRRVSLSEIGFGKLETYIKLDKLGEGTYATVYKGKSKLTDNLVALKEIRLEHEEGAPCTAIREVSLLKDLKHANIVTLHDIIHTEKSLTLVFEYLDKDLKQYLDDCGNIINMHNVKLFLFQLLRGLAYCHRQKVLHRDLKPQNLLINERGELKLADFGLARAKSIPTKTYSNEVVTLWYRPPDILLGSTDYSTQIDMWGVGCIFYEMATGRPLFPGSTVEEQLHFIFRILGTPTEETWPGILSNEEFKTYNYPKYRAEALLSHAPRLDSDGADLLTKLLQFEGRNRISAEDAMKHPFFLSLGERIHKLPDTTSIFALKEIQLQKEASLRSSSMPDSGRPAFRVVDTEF

[11] = molecular target: T4, 5-hydroxytryptamine receptor 3A (Homo sapiens) (UniProt P46098); settings: Compound concentration 10.0 uM
T4 sequence (whole entry): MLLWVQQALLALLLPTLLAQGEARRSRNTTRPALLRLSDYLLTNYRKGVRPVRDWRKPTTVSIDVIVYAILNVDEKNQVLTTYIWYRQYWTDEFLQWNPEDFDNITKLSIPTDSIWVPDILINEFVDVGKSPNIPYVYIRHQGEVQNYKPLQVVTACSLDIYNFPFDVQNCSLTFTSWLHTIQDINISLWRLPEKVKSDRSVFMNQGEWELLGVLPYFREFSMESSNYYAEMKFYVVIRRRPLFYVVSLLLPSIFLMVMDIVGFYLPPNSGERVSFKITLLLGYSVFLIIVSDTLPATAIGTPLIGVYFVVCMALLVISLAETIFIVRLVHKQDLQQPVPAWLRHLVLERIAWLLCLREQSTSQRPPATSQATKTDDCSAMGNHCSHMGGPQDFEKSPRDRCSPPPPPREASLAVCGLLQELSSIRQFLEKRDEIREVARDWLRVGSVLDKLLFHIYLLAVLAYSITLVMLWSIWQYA

[12] = molecular target: Casein kinase I isoform delta (Homo sapiens) (UniProt P48730); test: CSNK1D SGC Tm panel (DSF); settings: for ΔTm: Compound concentration 10.0 uM
Chain of Casein kinase I isoform delta (Homo sapiens) (P48730 whole entry, looked up, canonical isoform): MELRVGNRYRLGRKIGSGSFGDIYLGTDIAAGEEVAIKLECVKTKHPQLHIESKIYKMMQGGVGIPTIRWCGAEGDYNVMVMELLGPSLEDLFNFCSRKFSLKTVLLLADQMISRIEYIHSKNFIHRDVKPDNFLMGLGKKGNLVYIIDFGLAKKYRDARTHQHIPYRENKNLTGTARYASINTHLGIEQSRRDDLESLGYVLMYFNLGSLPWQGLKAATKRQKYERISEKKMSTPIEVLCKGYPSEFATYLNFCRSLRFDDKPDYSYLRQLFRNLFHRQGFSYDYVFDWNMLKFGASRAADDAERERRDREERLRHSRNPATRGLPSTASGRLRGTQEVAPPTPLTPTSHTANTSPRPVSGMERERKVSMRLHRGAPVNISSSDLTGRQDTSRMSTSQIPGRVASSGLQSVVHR

[13] = molecular target: 5-hydroxytryptamine receptor 5A (Homo sapiens) (UniProt P47898); settings: Compound concentration 10.0 uM
Chain of 5-hydroxytryptamine receptor 5A (Homo sapiens) (P47898 whole entry): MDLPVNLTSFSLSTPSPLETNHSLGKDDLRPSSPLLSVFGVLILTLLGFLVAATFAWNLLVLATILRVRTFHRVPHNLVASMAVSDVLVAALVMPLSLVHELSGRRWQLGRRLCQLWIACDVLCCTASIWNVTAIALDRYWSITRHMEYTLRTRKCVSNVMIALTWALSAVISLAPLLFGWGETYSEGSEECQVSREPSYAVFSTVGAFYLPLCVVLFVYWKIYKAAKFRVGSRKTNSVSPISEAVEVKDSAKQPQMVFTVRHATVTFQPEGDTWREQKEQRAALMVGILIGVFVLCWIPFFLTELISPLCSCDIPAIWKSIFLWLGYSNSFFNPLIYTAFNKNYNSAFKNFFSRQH

Chain of Proto-oncogene tyrosine-protein kinase Src (Homo sapiens) (P12931 2-536 limits assumed): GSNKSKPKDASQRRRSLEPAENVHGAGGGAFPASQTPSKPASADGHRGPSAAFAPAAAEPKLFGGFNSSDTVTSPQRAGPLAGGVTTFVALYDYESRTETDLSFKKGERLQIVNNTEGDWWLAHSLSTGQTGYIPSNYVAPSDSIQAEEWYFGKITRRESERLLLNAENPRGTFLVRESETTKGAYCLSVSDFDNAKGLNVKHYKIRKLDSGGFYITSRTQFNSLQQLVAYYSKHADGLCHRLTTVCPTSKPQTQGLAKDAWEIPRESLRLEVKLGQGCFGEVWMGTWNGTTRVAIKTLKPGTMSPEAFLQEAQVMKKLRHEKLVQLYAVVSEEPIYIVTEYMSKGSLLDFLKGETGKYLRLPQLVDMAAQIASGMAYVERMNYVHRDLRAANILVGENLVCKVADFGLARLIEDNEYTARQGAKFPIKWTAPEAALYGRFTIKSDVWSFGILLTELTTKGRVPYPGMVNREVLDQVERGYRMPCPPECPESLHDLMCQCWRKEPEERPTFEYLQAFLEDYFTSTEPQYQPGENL
Chain of RAC-gamma serine/threonine-protein kinase (Homo sapiens) (Q9Y243 whole entry): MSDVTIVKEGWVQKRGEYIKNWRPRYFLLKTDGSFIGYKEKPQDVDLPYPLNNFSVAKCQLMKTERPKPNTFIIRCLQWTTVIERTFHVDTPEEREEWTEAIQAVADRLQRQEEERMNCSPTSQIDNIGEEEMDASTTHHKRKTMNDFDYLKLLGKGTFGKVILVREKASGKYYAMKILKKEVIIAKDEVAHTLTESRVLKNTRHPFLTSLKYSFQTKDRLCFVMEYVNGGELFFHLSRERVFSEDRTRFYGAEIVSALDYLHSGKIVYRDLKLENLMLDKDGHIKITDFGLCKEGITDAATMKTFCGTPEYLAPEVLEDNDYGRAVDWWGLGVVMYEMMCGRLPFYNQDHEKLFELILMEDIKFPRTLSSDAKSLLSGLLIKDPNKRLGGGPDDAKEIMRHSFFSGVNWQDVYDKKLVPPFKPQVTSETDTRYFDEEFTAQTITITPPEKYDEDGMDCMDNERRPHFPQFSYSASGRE

| SMILES | delta Tm Staurosporine positive control [1] | ΔTm [1] | delta Tm Staurosporine positive control [2] | ΔTm [2] | delta Tm Staurosporine positive control [3] | ΔTm [3] | inhibition [4] [%] | delta Tm Staurosporine positive control [5] | ΔTm [5] | delta Tm Staurosporine positive control [6] | ΔTm [6] | inhibition [7] [%] | inhibition [8] [%] | delta Tm Staurosporine positive control [9] | ΔTm [9] | delta Tm Staurosporine positive control [10] | ΔTm [10] | inhibition [11] [%] | delta Tm Staurosporine positive control [12] | ΔTm [12] | other results |
| --- | --- | --- | --- | --- | --- | --- | --- | --- | --- | --- | --- | --- | --- | --- | --- | --- | --- | --- | --- | --- | --- |
| CCC[C@@H]1CNCc2c1[nH]c(=O)c(C#N)c2N1CCC2(CC1)CC2 | 7.39 | -0.0953 | 7.15 | -0.39 | 13.7 | -0.647 | 8.63 | 17.5 | -0.214 | 10.6 | -0.79 | 7.47 | -6.78 | 3.02 | 0.0735 | 11.2 | -0.4 | 5.44 | 2.05 | 0.052 | inhibition [13]: 3.9% |
| CCC[C@H]1CNCc2c1[nH]c(=O)c(C#N)c2N1CCC2(CC1)CC2 | 7.39 | -0.143 | 7.15 | -0.443 | 13.7 | -0.51 | 5.13 | 17.5 | -0.331 | 10.6 | -0.858 | 3.42 | -6.31 | 3.02 | 0.146 | 11.2 | -0.418 | 7.4 | 2.05 | -0.142 | inhibition [13]: 5.53% |
